Test results from patent publication US10906897B2, “Microbiocidal heterobicyclic derivatives” (priority 2015, dated 2021).

Tests used:
[1] = system: Magnaporthe grisea (Pyricularia oryzae); experiment: whole plant or invertebrate; assay type: in vivo; details: foliar, read-out: control of Magnaporthe grisea
[2] = system: Glomerella lagenarium (Colletotrichum lagenarium); experiment: Glomerella lagenarium (Colletotrichum lagenarium) / liquid culture (Anthracnose); assay type: cell-based; details: Colletotrichum orbiculare, growth inhibition photometrically 3-4 days after application, compared to untreated control
Fusarium culmorum = experiment: microbe, parasite or virus in culture; assay type: cell-based; details: read-out: control of Fusarium culmorum
Gaeumannomyces graminis = Gaeumannomyces graminis / liquid culture (Take-all of cereals); assay type: cell-based; details: growth inhibition photometrically 4-5 days after application, compared to untreated control
[3] = system: Monographella nivalis (Microdochium nivale); experiment: Monographella nivalis (Microdochium nivale) / liquid culture (foot rot cereals); assay type: cell-based; details: 96 h, growth inhibition photometrically 4-5 days after application, compared to untreated control
[4] = system: Mycosphaerella graminicola (Septoria tritici); experiment: Mycosphaerella graminicola (Septoria tritici) / liquid culture (Septoria blotch); assay type: cell-based; details: Zymoseptoria tritici, growth inhibition photometrically 4-5 days after application, compared to untreated control
[5] = system: Botryotinia fuckeliana (Botrytis cinerea); experiment: Botryotinia fuckeliana (Botrytis cinerea) / liquid culture (Gray mould); assay type: cell-based; details: growth inhibition photometrically 3-4 days after application, compared to untreated control
Sclerotinia sclerotiorum = Sclerotinia sclerotiorum / liquid culture (cottony rot); details: read-out: control of Sclerotinia sclerotiorum
Experimental: Sclerotinia sclerotiorum/Liquid Culture (Cottony Rot)
Mycelia fragments of a newly grown liquid culture of the fungus are directly mixed into 5 nutrient broth (Vogels broth). After placing a (DMSO) solution of test compound into a microtiter plate (96-well format) the nutrient broth containing the fungal material is added. The test plates are incubated at 24° C. and the inhibition of growth is determined photometrically 3-4 days after application.

[6] = system: Magnaporthe grisea (Pyricularia oryzae); experiment: microbe, parasite or virus in culture; assay type: cell-based; details: read-out: control of Magnaporthe grisea

Compound `Cc1cccn2c(C3=NC(C)(C)C(F)(F)c4c(F)cccc43)cnc12` [Compound E-39, 4,4,5-trifluoro-3,3-dimethyl-1-(8-methylimidazo[1,2-a]pyridin-3-yl)isoquinoline] has a pest or weed control at 200 ppm [1] of no less than 50%, an inhibition of growth at 20 ppm [2] of no less than 80% and an inhibition of growth at 20 ppm (Fusarium culmorum) of no less than 80%. For the same compound, the inhibition of growth at 20 ppm (Gaeumannomyces graminis) was no less than 80%, the inhibition of growth at 20 ppm [3] was no less than 80% and the inhibition of growth at 20 ppm [4] was no less than 80%. The inhibition of growth at 20 ppm [5] was no less than 80%.

For `CC1(C)N=C(c2cnn3ccccc23)c2ccccc2C1(F)F` [Compound E-80, 4,4-difluoro-3,3-dimethyl-1-pyrazolo[1,5-a]pyridin-3-yl-isoquinoline], the inhibition of growth at 20 ppm [2] was no less than 80%, the inhibition of growth at 20 ppm (Fusarium culmorum) was no less than 80% and the inhibition of growth at 20 ppm (Gaeumannomyces graminis) was no less than 80%. The inhibition of growth at 20 ppm (Sclerotinia sclerotiorum) was no less than 80%, the inhibition of growth at 20 ppm [3] was no less than 80% and the inhibition of growth at 20 ppm [4] was no less than 80%. For the same compound, the inhibition of growth at 20 ppm [5] was no less than 80%, the inhibition of growth at 60 ppm [6] was no less than 80% and the melting point was 78 to 82 °C.

With `CC1(C)N=C(c2cnn3cc(Br)ccc23)c2ccccc2C1(F)F` [Compound E-81, 1-(6-bromopyrazolo[1,5-a]pyridin-3-yl)-4,4-difluoro-3,3-dimethyl-isoquinoline] the pest or weed control at 200 ppm [1] was no less than 50%, the inhibition of growth at 20 ppm [2] was no less than 80% and the inhibition of growth at 20 ppm (Fusarium culmorum) was no less than 80%. For the same compound, the inhibition of growth at 20 ppm (Gaeumannomyces graminis) was no less than 80%, the inhibition of growth at 20 ppm (Sclerotinia sclerotiorum) was no less than 80% and the inhibition of growth at 20 ppm [3] was no less than 80%. It also gave an inhibition of growth at 20 ppm [4] of no less than 80%, an inhibition of growth at 20 ppm [5] of no less than 80% and an inhibition of growth at 60 ppm [6] of no less than 80%. For the same compound, the melting point was 127 to 129 °C.

In the case of `CC1(C)N=C(c2cnn3cc(Br)ccc23)c2ccccc2C1=O` [Compound E-82, 1-(6-bromopyrazolo[1,5-a]pyridin-3-yl)-3,3-dimethyl-isoquinolin-4-one], the inhibition of growth at 20 ppm [2] is reported as no less than 80%, the inhibition of growth at 20 ppm (Fusarium culmorum) is reported as no less than 80% and the inhibition of growth at 20 ppm (Gaeumannomyces graminis) is reported as no less than 80%. The inhibition of growth at 20 ppm (Sclerotinia sclerotiorum) was no less than 80%, the inhibition of growth at 20 ppm [3] was no less than 80% and the inhibition of growth at 20 ppm [4] was no less than 80%. For the same compound, the inhibition of growth at 20 ppm [5] was no less than 80%, the inhibition of growth at 60 ppm [6] was no less than 80% and the melting point was 147 to 149 °C.

`Cc1ccc2c(C3=NC(C)(C)C(F)(F)c4ccccc43)cnn2c1` [Compound E-83, 4,4-difluoro-3,3-dimethyl-1-(6-methylpyrazolo[1,5-a]pyridin-3-yl)isoquinoline] showed a pest or weed control at 200 ppm [1] of no less than 50%, an inhibition of growth at 20 ppm [2] of no less than 80% and an inhibition of growth at 20 ppm (Fusarium culmorum) of no less than 80%. For the same compound, the inhibition of growth at 20 ppm (Gaeumannomyces graminis) was no less than 80%, the inhibition of growth at 20 ppm (Sclerotinia sclerotiorum) was no less than 80% and the inhibition of growth at 20 ppm [3] was no less than 80%. It also gave an inhibition of growth at 20 ppm [4] of no less than 80%, an inhibition of growth at 20 ppm [5] of no less than 80% and an inhibition of growth at 60 ppm [6] of no less than 80%. It also gave a melting point of 105 to 107 °C.

Work on `CCc1ccc2c(C3=NC(C)(C)C(F)(F)c4ccccc43)cnn2c1` [Compound E-86, 1-(6-ethylpyrazolo[1,5-a]pyridin-3-yl)-4,4-difluoro-3,3-dimethyl-isoquinoline] yielded a pest or weed control at 200 ppm [1] of no less than 50%, an inhibition of growth at 20 ppm [2] of no less than 80% and an inhibition of growth at 20 ppm (Fusarium culmorum) of no less than 80%. The inhibition of growth at 20 ppm (Gaeumannomyces graminis) was no less than 80%, the inhibition of growth at 20 ppm (Sclerotinia sclerotiorum) was no less than 80% and the inhibition of growth at 20 ppm [4] was no less than 80%. For the same compound, the inhibition of growth at 20 ppm [5] was no less than 80% and the inhibition of growth at 60 ppm [6] was no less than 80%.

For `CC1(C)N=C(c2cnn3cc(Cl)ccc23)c2ccccc2C1(F)F` [Compound E-87, 1-(6-chloropyrazolo[1,5-a]pyridin-3-yl)-4,4-difluoro-3,3-dimethyl-isoquinoline], the pest or weed control at 200 ppm [1] was no less than 50%, the inhibition of growth at 20 ppm [2] was no less than 80% and the inhibition of growth at 20 ppm (Fusarium culmorum) was no less than 80%. For the same compound, the inhibition of growth at 20 ppm (Gaeumannomyces graminis) was no less than 80%, the inhibition of growth at 20 ppm (Sclerotinia sclerotiorum) was no less than 80% and the inhibition of growth at 20 ppm [4] was no less than 80%. The inhibition of growth at 20 ppm [5] was no less than 80%, the inhibition of growth at 60 ppm [6] was no less than 80% and the melting point was 113 to 118 °C.

`Cc1c(F)ccc2c(C3=NC(C)(C)C(F)(F)c4ccccc43)cnn12` [Compound E-88, 4,4-difluoro-1-(6-fluoro-7-methyl-pyrazolo[1,5-a]pyridin-3-yl)-3,3-dimethyl-isoquinoline] showed a pest or weed control at 200 ppm [1] of no less than 50%, an inhibition of growth at 20 ppm [2] of no less than 80% and an inhibition of growth at 20 ppm (Fusarium culmorum) of no less than 80%. The inhibition of growth at 20 ppm (Gaeumannomyces graminis) was no less than 80%, the inhibition of growth at 20 ppm (Sclerotinia sclerotiorum) was no less than 80% and the inhibition of growth at 20 ppm [3] was no less than 80%. It also gave an inhibition of growth at 20 ppm [4] of no less than 80%, an inhibition of growth at 20 ppm [5] of no less than 80% and an inhibition of growth at 60 ppm [6] of no less than 80%. It also gave a melting point of 115 to 118 °C.

`CC1(C)N=C(c2cnn3c(Cl)cccc23)c2ccccc2C1(F)F` [Compound E-93, 1-(7-chloropyrazolo[1,5-a]pyridin-3-yl)-4,4-difluoro-3,3-dimethyl-isoquinoline] showed a pest or weed control at 200 ppm [1] of no less than 50%, an inhibition of growth at 20 ppm [2] of no less than 80% and an inhibition of growth at 20 ppm (Fusarium culmorum) of no less than 80%. The inhibition of growth at 20 ppm (Sclerotinia sclerotiorum) was no less than 80%, the inhibition of growth at 20 ppm [3] was no less than 80% and the inhibition of growth at 20 ppm [4] was no less than 80%. It also gave an inhibition of growth at 20 ppm [5] of no less than 80%, an inhibition of growth at 60 ppm [6] of no less than 80% and a melting point of 129 to 132 °C.
